“Also recorded” adds a separate entry of the source.
Tests used:
[1] = Hydration study (stirring in ethanol: water mixtures, XRPD); format: physicochemical
Method: 20 mg of osanetant p-toluenesulfonic acid Form 1 was stirred in the appropriate ethanol: water mixtures for 24 h at 25° C. Where clear solutions were observed after 1 h at 25° C., 0.5 mL of liquor was removed, and additional solid was added until a slurry was maintained. After 24 h total, the experiments were isolated by centrifugation, and the solids were analyzed by XRPD.
Osanetant benzenesulfonic acid Form 3 (20 mg) was stirred in the appropriate ethanol: water mixtures for 24 h at 25° C. Where clear solutions were observed after 1 h at 25° C., 0.5 mL of liquor was removed from the Aw 0.257 sample, and additional solid was added until a slurry was maintained. After 24 h total, the experiments were isolated by centrifugation, and the solids were analyzed by XRPD.

[2] = Comparative studies: 7-day stability; format: physicochemical; conditions: for impurities on 7-day stability: 80° C.; for solid form on 7-day stability: 7 days, elevated temperature where stated
Method: Osanetant p-toluenesulfonic acid Form 1, osanetant benzene sulfonic acid Form 3, osanetant naphthalene-2-sulfonic acid Form 3, and osanetant phosphoric acid Form 7 were compared. Osanetant phosphoric acid Form 7 was obtained when preparation of osanetant phosphoric acid Form 4 was repeated and found to be not reproducible, and Form 7 was determined to be a mixture of hydrates).
Thus, osanetant benzene sulfonic acid salt Form 1 and osanetant p-toluene sulfonic acid salt Form 1 were identified as advantageous salts.

[3] = Salt screen: XRPD of isolated solids after drying at 40° C. and at 40° C./75% RH; format: physicochemical; conditions: for XRPD after drying at 40° C./75% RH: after 40° C. drying, dried at 40° C./75% RH for about 24 h, label = form after 40° C. drying; for XRPD after drying at 40° C.: isolated solids dried at 40° C. for about 24 h, label = wet form
Method: To approximately 20 mg of amorphous lyophilized osanetant was added 0.3 mL of solvent for liquid counterion experiments. 0.2 mL of solvent was employed for solid counterion experiments. […] To the stirring mixture was then added 1.05 mol eq. of the appropriate counterion. Where solid counterions were used, the vial which contained the counterion was washed in to the osanetant containing vial with 0.1 mL of the appropriate solvent. Additional solvent was added where necessary. The experiments were thermally cycled as follows: heated from 25 to 40° C. at a rate of 0.1° C./min; 1 h at 40° C.; Cool to 5° C. at a rate of 0.1° C.; 1 h at 5° C.; 40° C. at a rate of 0.1° C./min; […] The crystallization experiments were thermally cycled overnight, then slurries were isolated by centrifugation. XRPD analysis was carried out on any isolated solids or gums. The XRPD plate, and the isolated solids, were then dried at 40° C. for about 24 h, and XRPD analysis was repeated. The XRPD plate was then dried at 40° C./75% RH for about 24 h and XRPD analysis was again repeated. All other samples were allowed to evaporated at ambient temperature and pressure.

[4] = Disproportionation study (stirring in water, XRPD, pH of liquor); format: physicochemical; conditions: 10 mg in 1 mL of water, 24 h at 25° C.
Method: After 24 h total, a white slurry was observed and was isolated by centrifugation. The solids were analyzed by XRPD. The pH of the filtered liquor was measured at 5.63. […] After 24 h total, a white slurry was observed and was isolated by centrifugation. The solids were analyzed by XRPD. The pH of the filtered liquor was measured (pH=5.09).

[5] = Thermodynamic solubility in water and pH buffers
[6] = Solid form stability observations (scale up / polymorph work: drying, ambient conditions, aqueous media); format: physicochemical
Method: Two anhydrous forms of the osanetant p-toluenesulfonic acid were synthesized. […] Form 6, described below, was a stable anhydrous form, but hydrated in water and aqueous solvent mixtures.
Advantageously, Form 1 (hydrate) and Form 6 (anhydrous) were stable on drying. Form 1 re-hydrated at room temperature and pressure after KF analysis, when it was heated in an oven to remove the water.
The experiment was cooled to 5° C. at a rate of 0.1° C./min and stirred at 5° C. for 18 h. The slurry was isolated be Buchner filtration: 42.5 mm Ø grade 1 Whatman filter paper; fast Filtration (<30 s); the cake was washed with 1 mL of ethyl acetate; the isolated solids were dried at 40° C. under vacuum for 72 h. […]

[7] = Hygroscopicity / dynamic vapor sorption (DVS); format: physicochemical
Method: The osanetant p-toluenesulfonic acid Form 1 solids consisted of aggregated crystals with an undefined morphology. Select peaks which can be used to characterize osanetant p-toluenesulfonic acid Form 1 include one or more of 11.4°2θ±0.2°2θ, 18.0°2θ±0.2°2θ, 19.0°2θ±0.2°2θ, 19.3°2θ±0.2°2θ, 19.8°2θ±0.2°2θ, or 21.1°2θ±0.2°2θ. In some embodiments, osanetant p-toluenesulfonic acid Form 1 is a monohydrate.

Molecule | XRPD form after stirring in ethanol: water mixtures ([1]; 24 h at 25° C., Aw 0.507 and above / high water activity) | XRPD ([1]; slurry in ethanol:water 63.6:36.4 % v/v, calc Aw 0.745, 24 h at 25° C.) | XRPD ([1]; slurry in ethanol:water 92.9:7.1 % v/v, calc Aw 0.507, 24 h at 25° C.) | XRPD ([1]; slurry in ethanol:water 98.4:1.6 % v/v, calc Aw 0.257, 24 h at 25° C.) | solid chemical stability ([2]; 7-day stability results, overall) | impurities on 7-day stability [2] | solid form on 7-day stability [2] | XRPD after drying at 40° C./75% RH [3] | XRPD after drying at 40° C. [3] | XRPD form / disproportionation after stirring in water [4] | pH of the filtered liquor [4] | solid form after thermodynamic solubility in pH buffers [5] | thermodynamic solubility in pH buffers / buffered systems [5] | hydration / form conversion in water and aqueous solvent mixtures [6] | form on drying ([6]; drying (40° C. under vacuum where stated)) | hygroscopicity / water loss on DVS analysis [7]
CC(=O)N(C)C1(c2ccccc2)CCN(CCC[C@]2(c3ccc(Cl)c(Cl)c3)CCCN(C(=O)c3ccccc3)C2)CC1.O=S(=O)(O)c1ccccc1 [osanetant benzenesulfonic acid Form 3, (R)-N-(1-(3-(1-benzoyl-3-(3,4-dichlorophenyl)piperidin-3-yl)propyl)-4-phenylpiperidin-4-yl)-N-methylacetamide benzenesulfonic acid] | conversion to osanetant benzenesulfonic acid Form 1; also recorded: converted to osanetant benzene sulfonic acid Form 1 | Form 1 | Form 1 | Form 3 | good | slight increase in impurities; also recorded: lowest impurity increase | retained form | retained; also recorded: stable; also recorded: Form 3 | Form 3 | converted to osanetant benzenesulfonic acid Form 1 | 5.09 | converted to Form 1 | low | converted to osanetant benzene sulfonic acid salt form Form 1 | no change | 
(R)-N-(1-(3-(1-benzoyl-3-(3,4-dichlorophenyl)piperidin-3-yl)propyl)-4-phenylpiperidin-4-yl)-N-methylacetamide naphthalene-2-sulfonic acid [osanetant naphthalene-2-sulfonic acid Form 3] |  |  |  |  |  | increase in impurities | stable solid form | retained; also recorded: stable; also recorded: Form 3 | retained; also recorded: Form 3 |  |  |  |  |  |  | more hygroscopic
